Source: patent US9714250B2, “Crystalline forms of temozolomide and the method for preparing same” (Jiangsu Tasly Diyi Pharmaceutical Co., Ltd., priority 2013, dated 2017)

Assays:
Assay type in all cases: physicochemical
[1] = High temperature test (stability); settings: for Appearance and color / Content / Drying loss / Related substances: 60° C. incubator; for Related substances: HPLC
Procedure: (§1) In the following test, related substances were determined as follows: HPLC method was used and chromatographic conditions were as follows: C18 column using octadecylsilane bonded silica gel as the filler, isocratic elution using methanol: 0.5% glacial acetic acid solution (10:90) as the mobile phase, and detection wavelength was at 254 nm.
Crystalline form A of Temozolomide (Form A0 prepared by the method of EXAMPLE 1) was placed in 60° C. incubator, sampled and determined on the 5th and 10th day.
Crystalline Form B of Temozolomide (Form B0 prepared by the method of EXAMPLE 6) was placed in 60° C. incubator, sampled and determined on the 5th and 10th day.
Crystalline Form C of Temozolomide (Form C prepared by the method of EXAMPLE 14) was placed in 60° C. incubator, sampled and determined on the 5th and 10th day.

[2] = Light exposure test (stability); settings: for Appearance and color / Content / Drying loss / Related substances: light intensity 4500±500Lx; for Related substances: HPLC
Procedure: as §1
Crystalline form A of Temozolomide (Form A0 prepared by the method of EXAMPLE 1) was exposed under conditions of light intensity of 4500±500Lx, sampled and determined on the 5th and 10th day.
Crystalline form B of Temozolomide (Form B0 prepared by the method of EXAMPLE 6) was placed, exposed under conditions of light intensity of 4500±500Lx, sampled and determined on the 5th and 10th day.
Crystalline Form C of Temozolomide (Form C prepared by the method of EXAMPLE 14) was placed, exposed under conditions of light intensity of 4500±500Lx, sampled and determined on the 5th and 10th day.

[3] = Stability test, overall conclusions; settings: light exposure, high-temperature, high-humidity and accelerated tests
Procedure: as §1
It should be noted that each crystalline form of Form A, Form B and Form C has similar stability properties. Hereinafter, Form A0, Form B0 and Form C were chosen only for illustrative purpose.

[4] = Solubility test; settings: for Amount of solvent for dissolving tested drug: about 10 mg tested drug
Procedure: It should be noted that each crystalline form of Form A, Form B and Form C has similar solubility properties. Hereinafter, Form A0, B0 and C were chosen only for illustrative purpose.
1. Solubility test of the crystalline Form A of Temozolomide (Form A0 prepared by the method of EXAMPLE 1). Solubility properties were assayed respectively by using DMSO, methanol, water, glacial acetic acid, 0.1M HCl, 0.1M NaOH and ethanol as the solvents.
2. Solubility test of the crystalline form B of Temozolomide (Form B0 prepared by the method of EXAMPLE 6). Solubility properties were assayed respectively by using DMSO, methanol, water, glacial acetic acid, 0.1M HCl, 0.1M NaOH and ethanol as the solvents.
3. Solubility test of the crystalline form C of Temozolomide (Form C prepared by the method of EXAMPLE 14). Solubility properties were assayed respectively by using DMSO, methanol, water, glacial acetic acid, 0.1M HCl, 0.1M NaOH and ethanol as the solvents.

[5] = High humidity test (stability); settings: for Related substances: HPLC
Procedure: as §1
Crystalline Form A of Temozolomide (Form A0 prepared by the method of EXAMPLE 1) was placed in 25° C. incubator (relative humidity: 75±5%), sampled and determined on the 5th and 10th day.
Crystalline Form B of Temozolomide (Form B0 prepared by the method of EXAMPLE 6) was placed in 25° C. incubator (relative humidity: 75±5%), sampled and determined on the 5th and 10th day.
Crystalline Form C of Temozolomide (Form C prepared by the method of EXAMPLE 14) was placed in 25° C. incubator (relative humidity: 75±5%), sampled and determined on the 5th and 10th day.

[6] = 25° C., relative humidity 75±5%, 0th day
[7] = 25° C., relative humidity 75±5%, 5th day
[8] = 25° C., relative humidity 75±5%, 10th day

- Appearance and color ([1]; 0th day): White powder
- Content ([1]; 0th day): 99.97%
- Drying loss ([1]; 0th day): 0.33%
- Related substances ([1]; 0th day): Not detected
- Appearance and color ([1]; 5th day): White powder
- Content ([1]; 5th day): 99.73%
- Drying loss ([1]; 5th day): 0.27%
- Related substances ([1]; 5th day): Not detected
- Appearance and color ([1]; 10th day): White powder
- Content ([1]; 10th day): 99.61%
- Drying loss ([1]; 10th day): 0.29%
- Related substances ([1]; 10th day): Not detected
- Stability in the high-temperature test (conclusion) ([1]; 60° C., 10 days): stable
- Stability in the light exposure test (conclusion) ([2]; 4500±500Lx, 10 days): stable
- Appearance and color ([2]; 0th day): White powder
- Content ([2]; 0th day): 99.97%
- Drying loss ([2]; 0th day): 0.38%
- Related substances ([2]; 0th day): Not detected
- Appearance and color ([2]; 5th day): White powder
- Content ([2]; 5th day): 99.92%
- Drying loss ([2]; 5th day): 0.33%
- Related substances ([2]; 5th day): Not detected
- Appearance and color ([2]; 10th day): White powder
- Content ([2]; 10th day): 99.95%
- Drying loss ([2]; 10th day): 0.29%
- Related substances ([2]; 10th day): Not detected
- Change in the appearance and color, the drying loss, the content and the related substances [3]: no obvious change
- Amount of solvent for dissolving 1 g of tested drug ([4]; solvent 0.1M HCl): 800 mL
- Solubility ([4]; solvent 0.1M HCl): Slightly soluble
- Amount of solvent for dissolving tested drug ([4]; solvent 0.1M HCl): 8 mL
- Amount of solvent for dissolving 1 g of tested drug ([4]; solvent 0.1M NaOH): 300 mL
- Solubility ([4]; solvent 0.1M NaOH): Slightly soluble
- Amount of solvent for dissolving tested drug ([4]; solvent 0.1M NaOH): 3 mL
- Amount of solvent for dissolving 1 g of tested drug ([4]; solvent DMSO): 70 mL
- Solubility ([4]; solvent DMSO): sparingly
- Amount of solvent for dissolving tested drug ([4]; solvent DMSO): 0.6 mL
- Amount of solvent for dissolving 1 g of tested drug ([4]; solvent Ethanol): 5700 mL
- Solubility ([4]; solvent Ethanol): Very slightly
- Amount of solvent for dissolving tested drug ([4]; solvent Ethanol): 57 mL
- Amount of solvent for dissolving 1 g of tested drug ([4]; solvent Glacial acetic acid): 300 mL
- Solubility ([4]; solvent Glacial acetic acid): Slightly soluble
- Amount of solvent for dissolving tested drug ([4]; solvent Glacial acetic acid): 3.0 mL
- Amount of solvent for dissolving 1 g of tested drug ([4]; solvent Methanol): 900 mL
- Solubility ([4]; solvent Methanol): Slightly soluble
- Amount of solvent for dissolving tested drug ([4]; solvent Methanol): 9.0 mL
- Amount of solvent for dissolving 1 g of tested drug ([4]; solvent Water): 800 mL
- Solubility ([4]; solvent Water): Slightly soluble
- Amount of solvent for dissolving tested drug ([4]; solvent Water): 8.0 mL
- Stability in the high-humidity test (conclusion) ([5]; 25° C., relative humidity 75±5%, 10 days): stable
- Appearance and color [5, 6]: White powder
- Content [5, 6]: 99.97%
- Weight gain of moisture absorption [5, 6]: 0%
- Related substances [5, 6]: Not detected
- Appearance and color [5, 7]: White powder
- Content [5, 7]: 99.63%
- Weight gain of moisture absorption [5, 7]: 0.37%
- Related substances [5, 7]: Not detected
- Appearance and color [5, 8]: White powder
- Content [5, 8]: 99.57%
- Weight gain of moisture absorption [5, 8]: 0.52%
- Related substances [5, 8]: Not detected
- Weight gain of moisture absorption (trend) ([5]; under the high-humidity condition): slightly increased
Compound: Cn1nnc2c(C(N)=O)ncn2c1=O [Form B, Temozolomide]
